In assay [1] the test system is Staphylococcus aureus. Description: Bactericidal activity against methicillin-resistant Staphylococcus aureus NCTC 10442 assessed as change in amino acid metabolism gene expression at 4 times of MIC concentration measured after 90 mins incubation by RNA sequencing (RNA-seq) study. Format: functional, organism-based.
The next assay deals with Cell membrane. Nature of the assay: Induction of outer membrane permeabilization in Escherichia coli ATCC 25922 assessed as increase in fluorescence intensity at 1 to 8 times MIC concentration by NPN-dye based fluorescence analysis. The class given is cell membranes.
In assay [2] the test system is Staphylococcus aureus. Description: Bactericidal activity against methicillin-resistant Staphylococcus aureus NCTC 10442 assessed as bacterial reduction at 4 time of MIC concentration incubated for 2 hrs by time-kill assay. The class given is functional.
Assay [3] concerns Staphylococcus aureus. Nature of the assay: Bactericidal activity against methicillin-resistant Staphylococcus aureus NCTC 10442 assessed as up-regulation of molecular functions related gene expression by measuring uracil DNA N-glycosylase activity (GO:0004844) at 4 times of MIC concentration measured after 90 mins incubation by RNA sequencing (RNA-seq) study. Format: functional, organism-based.

Assay [4] relates to Staphylococcus aureus. Nature of the assay: Bactericidal activity against methicillin-resistant Staphylococcus aureus NCTC 10442 assessed as up-regulation of molecular functions related gene expression by measuring aminoacyl-tRNA hydrolase activity (GO:0004045) at 4 times of MIC concentration measured after 90 mins incubation by RNA sequencing (RNA-seq) study. The class given is functional, organism-based.

Assay [5] deals with Staphylococcus aureus. Description: Antibacterial activity against Staphylococcus aureus ATCC 29213 assessed as inhibition of bacterial growth incubated for 24 hrs in presence of 4.5 mM K+ by broth dilution method. The class given is functional.
For assay [6], the system named is Escherichia coli. Nature of the assay: Bactericidal activity against Escherichia coli ATCC 25922 assessed as change in metabolic stress associated gene expression by measuring down-regulation of gale (DX983_RS06370) gene expression at 4 times of MIC concentration measured after 90 mins incubation. The class given is functional, organism-based.
The test system of a further assay is Klebsiella pneumoniae. Description: Antibacterial activity against Klebsiella pneumoniae ATCC 10031 assessed as inhibition of bacterial growth incubated for 24 hrs in presence of 19 uM Zn2+ by broth dilution method. Format: functional. (In general: Dilution methods test growth across graded concentrations, often in twofold steps.)
The test system of assay [7] is Escherichia coli. Nature of the assay: Antibacterial activity against Escherichia coli ATCC 25922 assessed as inhibition of bacterial growth incubated for 24 hrs in presence of 1 mM Mg2+ by broth dilution method. Format: functional.

Calls of active or inactive are those of the source. The calls are words filed in the database; no cut-off is given here.

As a reminder, the MIC is the lowest concentration found to suppress growth.

`C=C(C)[C@@H]1CCC(C)=C[C@H]1c1c(OCCCNC(=N)N)cc(CCCCC)cc1OCCCNC(=N)N`: the result in the assay on Staphylococcus aureus [1], in the assay with Staphylococcus aureus [3], in the assay on Staphylococcus aureus [4] and with Escherichia coli [6] was Active. Moreover, the Activity result in the assay with Cell membrane is “Dose-Dependent Effect”; in the assay on Staphylococcus aureus [2], 3 log10FFU/ml. Further, the MIC with Staphylococcus aureus [5] is 0.78 mg/L; in the assay with Klebsiella pneumoniae it was 3.12 mg/L; with Escherichia coli [7], 1.56 mg/L.

For the origin of these results see ChEMBL document CHEMBL5543084, “Development of cannabidiol derivatives as potent broad-spectrum antibacterial agents with membrane-disruptive mechanism” (Eur J Med Chem, 2024).
